The record followed here is paper PMC8625065 (Molecules, 2021).

Where a name gives a salt, the structure may show the parent alone. Bounds are passed on as bounds.

Series [1] deals with HepG2 (hepatocellular carcinoma). The series can be described thus: MTT proliferation assay, 72 h. The following applies: Homo sapiens; HepG2 cells, MTT, 72 h. The format is cell-based, human. How it is done: (§1) The cell lines HeLa (cervical carcinoma), SW620 (colorectal adenocarcinoma, metastatic), A549 (lung adenocarcinoma), HepG2 (hepatocellular carcinoma) and HFF (human foreskin fibroblasts) were cultured as monolayers and maintained in Dulbecco’s modified Eagle medium (DMEM), supplemented with 10% fetal bovine serum (FBS), 2mM L-glutamine, 100 U/mL penicillin and 100 μg/mL streptomycin in a humidified atmosphere with 5% CO2 at 37 °C.
(§2) Cells were seeded onto 96-well microtiter plates at a seeding density of 3000 cells/well for carcinoma cell lines, and 5000 cells/well for normal human fibroblasts. The next day, cells were treated with test agents at five different concentrations (0.01–100 µM) and further incubated for 72 h. […] Following 72 h incubation, the MTT assay was performed and measured absorbances were transformed into percentage of cell growth as described previously. Results were obtained from three independent experiments.
In general terms: Tetrazolium dyes change colour on reduction, which living cells bring about.

Series [2] has as its system HeLa (cervical carcinoma). The series can be described thus: MTT proliferation assay, 72 h. As to conditions: Homo sapiens; HeLa cells, MTT, 72 h. The format is cell-based, human. How it is done:
as §1, §2

Series [3] deals with SW620 (colorectal adenocarcinoma, metastatic). The series is described as follows: MTT proliferation assay, 72 h. The format is cell-based, human. As to conditions: Homo sapiens, SW-620; SW620 cells, MTT, 72 h. The protocol: as §1, §2
The subject of series [4] is A549 (lung adenocarcinoma). The series is described as follows: MTT proliferation assay, 72 h. The following applies: Homo sapiens, A549 cells. The format is cell-based. How it is done:
as §1, §2

Series [5] relates to HFF (human foreskin fibroblasts). The series can be described thus: MTT proliferation assay, 72 h, non-tumor cells. The format is cell-based. Set-up: selectivity index (SI): reference not given here. The protocol:
as §1, §2

For orientation: melting point means the temperature of the solid-liquid transition. What is called IC50 is the concentration that inhibits the measured activity by half. Turning to `N/C(=N\O)c1ccc(OCc2cn(-c3ccc(/C(N)=N/O)cc3)nn2)cc1` [Compound 13, (Z)-N′-Hydroxy-4-(4-((4-((Z)-N′-hydroxycarbamimidoyl)phenoxy)methyl)-1H-1,2,3-triazol-1-yl)benzimidamide], the melting point fell in the range of 218 to 221 °C. The IC50 in series [1] was greater than 100 µM. In addition, the IC50 in series [2] is greater than 100 µM. The molecule also gave a half-maximal inhibitory concentration (IC50) in series [3] greater than 100 µM. Moreover, the IC50 in series [4] was greater than 100 µM.

As for `c1cc(C2=NCCN2)c2ccn(Cc3cn(-c4ccc(C5=NCCN5)cc4)nn3)c2c1` (as salt: hydrochloride) [Compound 6, 1-((1-(4-(Dihydro-1H-imidazol-2-yl)phenyl)-1H-1,2,3-triazol-4-yl)methyl)-4-(dihydro-1H-imidazol-2-yl)-1H-indole dihydrochloride], the melting point was greater than 250 °C.

In turn, `Cl.Cl.c1cc(C2=NCCN2)ccc1NCc1cn(-c2ccc(C3=NCCN3)cc2)nn1` [Compound 4, 1-(4-(4,5-Dihydro-1H-imidazol-2-yl)-phenyl)-4-((4-(4,5-dihydro-1H-imidazol-2-yl)phenyl)aminomethyl)-1H-1,2,3-triazole dihydrochloride] came in with a melting point greater than 250 °C. The “selectivity index (SI)” value in series [5] (normal HFF fibroblasts versus tumor cells) turned out to be 2. The molecule also displayed a half-inhibitory concentration (IC50) in series [1] of 48.9 µM. In series [2], this molecule came in with an IC50 of 41.2 µM. Further, in series [3], the IC50 was determined as 61.9 µM. The molecule also showed an IC50 in series [4] of 46.7 µM.

Regarding `N/C(=N\O)c1ccc(-n2cc(CNc3cccc4cccnc34)nn2)cc1` [Compound 18, 8-(((1-(4-((Z)-N′-Hydroxycarbamimidoyl)phenyl)-1H-1,2,3-triazol-4-yl)methyl)amino)quinoline], the IC50 is 9.81 µM in series [5] (Homo sapiens, Fibroblast, non-tumor HFF fibroblasts, MTT, 72 h); greater than 100 µM in series [1]; 25.6 µM in series [2]; 6.52 µM in series [4].

Turning to `N/C(=N\O)c1ccc(-n2cc(COc3cccc4cccnc34)nn2)cc1` [Compound 19, 8-((1-(4-((Z)-N′-Hydroxycarbamimidoyl)phenyl)-1H-1,2,3-triazol-4-yl)methoxy)quinoline], the melting point was 230 to 232 °C. Moreover, the IC50 in series [1] is greater than 100 µM. The IC50 in series [2] came to 64.5 µM. Moreover, the IC50 in series [3] turned out to be 72.7 µM. For the same molecule, the IC50 in series [4] was 76.7 µM.

As for `N#Cc1ccc2c(ccn2Cc2cn(-c3ccc(/C(N)=N/O)cc3)nn2)c1` [Compound 16, 1-((1-(4-((Z)-N′-Hydroxycarbamimidoyl)phenyl)-1H-1,2,3-triazol-4-yl)methyl)-5-cyanoindole], the IC50 in series [1], in series [2], in series [3] and in series [4] was greater than 100 µM throughout.

Take `N/C(=N\O)c1ccc(-n2cc(Cn3ccc4c(/C(N)=N/O)cccc43)nn2)cc1` [Compound 15, (Z)-N′-hydroxy-1-((1-(4-((Z)-N′-hydroxycarbamimidoyl)phenyl)-1H-1,2,3-triazol-4-yl)methyl)-1H-indole-4-carboximidamide]: the melting point is 229 to 232 °C. Besides, in series [1], the IC50 is greater than 100 µM. This molecule also showed an IC50 in series [2] greater than 100 µM. The molecule further came in with an IC50 in series [3] greater than 100 µM. Besides, the IC50 in series [4] is greater than 100 µM.

Molecule `N/C(=N\O)c1ccc(-n2cc(Cn3ccc4cc(/C(N)=N/O)ccc43)nn2)cc1` [Compound 17, (Z)-N′-hydroxy-1-((1-(4-((Z)-N′-hydroxycarbamimidoyl)phenyl)-1H-1,2,3-triazol-4-yl)methyl)-indole-5-carboximidamide] registered a melting point of 232 to 234 °C. In series [1], this molecule returned an IC50 greater than 100 µM. The molecule further gave a half-inhibitory concentration (IC50) in series [2] of 60.7 µM. This molecule showed an IC50 in series [3] greater than 100 µM. In series [4], this molecule displayed an IC50 greater than 100 µM.

Regarding `c1cc(-n2cc(Cn3ccc4cc(C5=NCCN5)ccc43)nn2)ccc1C1=NCCN1` [Compound 7, 1-((1-(4-(Dihydro-1H-imidazol-2-yl)phenyl)-1H-1,2,3-triazol-4-yl)methyl)-5-(dihydro-1H-imidazol-2-yl)-1H-indole dihydrochloride], the IC50 is 69.1 µM in series [1], greater than 100 µM in series [2], 49.8 µM in series [3] and greater than 100 µM in series [4].

Regarding `N#Cc1ccc(NCc2cn(-c3ccc(/C(N)=N/O)cc3)nn2)cc1` [Compound 12, 4-(((1-(4-((Z)-N′-Hydroxycarbamimidoyl)phenyl)-1H-1,2,3-triazol-4-yl)methyl)amino)benzonitrile], the melting point fell in the range of 222 to 225 °C. Also, the IC50 in series [1] is greater than 100 µM. For the same molecule, the IC50 in series [2] was greater than 100 µM. In series [3], this molecule registered an IC50 of 65.1 µM. In addition, the IC50 in series [4] was greater than 100 µM.

`c1cc(-n2cc(Cn3ccc4cc(C5=NCCN5)ccc43)nn2)ccc1C1=NCCN1` (as salt: hydrochloride) [Compound 7, 1-((1-(4-(Dihydro-1H-imidazol-2-yl)phenyl)-1H-1,2,3-triazol-4-yl)methyl)-5-(dihydro-1H-imidazol-2-yl)-1H-indole dihydrochloride] showed a melting point of 228 to 231 °C.

As to `N#Cc1cccc2c1ccn2Cc1cn(-c2ccc(/C(N)=N/O)cc2)nn1` [Compound 14, 1-((1-(4-((Z)-N′-Hydroxycarbamimidoyl)phenyl)-1H-1,2,3-triazol-4-yl)methyl)-4-cyanoindole], the IC50 in series [1] was greater than 100 µM; in series [2] it was 65.8 µM; in series [3], greater than 100 µM; in series [4] it was greater than 100 µM.

`N/C(=N\O)c1ccc(-n2cc(COc3ccc4ccc(=O)oc4c3)nn2)cc1` [Compound 22, 7-((1-(4-((Z)-N′-Hydroxycarbamimidoyl)phenyl)-1H-1,2,3-triazol-4-yl)methoxy)coumarin] yielded a melting point of 232 to 235 °C. Further, half-maximal inhibition in series [1] (IC50) was put at 91.4 µM. In series [2], the IC50 is 87.4 µM. In addition, the IC50 in series [3] is greater than 100 µM. In series [4], the IC50 is greater than 100 µM.

With `N/C(=N\O)c1ccc(-n2cc(COc3cc(=O)oc4ccccc34)nn2)cc1` [Compound 21, 4-((1-(4-((Z)-N′-Hydroxycarbamimidoyl)phenyl)-1H-1,2,3-triazol-4-yl)methoxy)coumarin], the melting point fell in the range of 235 to 237 °C. Besides, in series [1], the IC50 is greater than 100 µM. For the same molecule, half-maximal inhibition in series [2] (IC50) required 99.7 µM. The IC50 in series [3] is greater than 100 µM. In series [4], the IC50 is greater than 100 µM.

As for `O=c1[nH]cc(F)c(=O)[nH]1` [Compound 5-FU, 5-Fluorouracil, reference compound], the IC50 in series [2] is 8.81 µM; in series [3], 0.08 µM; in series [4] it was 2.8 µM.
